Values of other authors as cited in patent publication US6629995B1, “Camptothecin conjugates” (priority 2000, dated 2003).

How the values were obtained:
[1] = tested on: human colon cancer xenografts; conditions: mouse, in vivo
[2] = tested on: nontumorigenic and tumorigenic human cells
human tumor xenografts = conditions: nude mice
[3] = administered intravenously
[4] = tested on: beta cells of the pancreas; conditions: in vivo

For CC[C@@]1(O)C(=O)OCc2c1cc1n(c2=O)Cc2cc3c(N)cccc3nc2-1 [Example 9AC, 9-Amino-20(S)-Camptothecin], the “anticancer activity against human colon cancer xenografts” value [1] is given as “high anticancer activity”.
In the case of CC[C@@]1(O)C(=O)OCc2c1cc1n(c2=O)Cc2cc3ccccc3nc2-1 [CPT, 20(S)-camptothecin], the solubility in water is given as “insoluble in water”, the “effect on nontumorigenic cells” value ([2]; nontumorigenic human cells in vitro) is given as “cytostatic” and the “effect on tumorigenic cells” value ([2]; tumorigenic human cells in vitro) is given as “cytotoxic”.
In the case of CC[C@@]1(O)C(=O)OCc2c1cc1n(c2=O)Cc2cc3c([N+](=O)[O-])cccc3nc2-1 [Example 9NC, 9-nitrocamptothecin], the “activity against human tumor xenograft models” value (human tumor xenografts) is given as “high activity”.
For CC[C@@](O)(C(=O)[O-])c1cc2n(c(=O)c1CO)Cc1cc3ccccc3nc1-2.[Na+] [CPT Na+, camptothecin sodium salt], the “potency in clinical trials” value [3] is listed as “low potency” and the “toxicity in clinical trials” value [3] is listed as “high toxicity”.
For CC[C@@]1(O)C(=O)OCc2c1cc1n(c2=O)Cc2cc3cc4c(cc3nc2-1)OCO4 [10,11 MD, 10,11-Methylendioxy-20(S)-Camptothecin], the “anticancer activity against human colon cancer xenografts” value [1] is given as “high anticancer activity”.
For CN(N=O)C(=O)N[C@@H]1[C@@H](O)[C@H](O)[C@@H](CO)O[C@@H]1O [Streptozoticin], the accumulation in tissue [4] is listed as “preferentially accumulate in the beta cells of the pancreas”.
